Results on 28 compounds are retold here after US12358918B2, “Aryl hydrocarbon receptor (AHR) activator compounds as cancer therapeutics” (THE BROAD INSTITUTE, INC., priority 2018, dated 2025).

One data set relates to MDA-MB-468 breast cancer cells. Briefly: Western immunoblot of treated cells over 24 hours. The data set is classed as cell-based. The conditions noted are these: 24 hour time course; FIG. 18. Here is the method: Adherent cells were washed once with cold 1×PBS (Corning #01018002) and lysed with RIPA buffer (Sigma #R0278) supplemented by protease and phosphatase inhibitors (Sigma). Protein content was quantified using the DC Protein Assay (BioRad #5000111). Samples were reduced with (loading buffer) and boiled at 95° C. before being resolved by SDS gel electrophoresis on 4-20% Tris/glycine gels (Invitrogen). Proteins were transferred using the IBlot2 (Thermo #IB21001) onto the iBlot™ 2 nitrocellulose Transfer Stacks (Thermo #IB23001). The membranes were then blocked in Odyssey Blocking Buffer (Li-COR #927-40000) for one hour, and then probed overnight with primary antibodies diluted in blocking buffer. The following day, membranes were washed 3×5 mins with 1×TBST and then probed with LiCOR Infrared secondary antibodies for 1 hour at room temperature. Membranes were washed an additional 3×5 mins in 1×TBST and then imaged using the LiCOR Imager. […]
(In general: Immunoblotting shows a protein as a band on a membrane.)
With `COc1cccc2c1C(=O)c1c(O)c3c(c(O)c1C2=O)C[C@@](O)(C(=O)CO)C[C@@H]3O[C@H]1C[C@H](N)[C@H](O)[C@H](C)O1` [doxorubicin], the CYP1A1 expression result was “no detectable induction of CYP1A1 expression” and the FOXA1 levels entry was “decline in FOXA1 levels”.

The same data set, now with this note: within 24 hours; FIG. 18.
Regarding `COc1cccc2c1C(=O)c1c(O)c3c(c(O)c1C2=O)C[C@@](O)(C(=O)CO)C[C@@H]3O[C@H]1C[C@H](N)[C@H](O)[C@H](C)O1` [doxorubicin], the “DNA double stranded breaks (pH2A.X) and PARP cleavage” value was “induced DNA double stranded breaks”.

The next data set relates to MDA-MB-231 breast cancer cell lines. Briefly: cytotoxicity, control cells vs cells overexpressing CYP1A1. The data set is classed as cell-based.
Conditions: not given
An excerpt: The dependence of each compound's cytotoxic effects upon CYP1A1 was also examined, via screening of MDA-MB-231 breast cancer cell lines for cytotoxic response. The CYP1A1-dependence of the cytotoxic response of to each tested compound was specifically determined by comparing the cytotoxicity of each compound administered to control cells with that of the compound administered to corresponding cells that overexpressed CYP1A1. […]
Regarding `Cc1nc2ccccc2c2nc(-c3ccoc3)nn12` [Z1222312995], the “CYP1A1-dependence of the cytotoxic response” value (“CYP1A1-dependence” below) is “CYP1A1-dependent cytotoxic”.
For `COc1ccc2nc(N)n3nc(-c4ccco4)nc3c2c1` [A15], the “CYP1A1-dependence” value was “CYP1A1-dependent cytotoxic”.
In the case of `Cc1nc2cccc(Cl)c2c2nc(-c3ccco3)nn12` [B1], the “CYP1A1-dependence” value is on record as “CYP1A1-dependent cytotoxic”.
Same read-out and setting: next, `Nc1nc2ccc(Br)cc2c2nc(-c3ccco3)nn12` [A14]: “CYP1A1-dependent cytotoxic”; `Sc1nc2ccccc2c2nc(-c3ccco3)nn12` [2-(2-furyl)[1,2,4]triazolo[1,5-c]quinazolin-5-yl hydrosulfide]: “CYP1A1-dependent cytotoxic”; `COc1cccc2nc(N)n3nc(-c4ccco4)nc3c12` [A16]: “CYP1A1-dependent cytotoxic”.
For the compound `O=C1NC(=O)c2c1c1c3ccccc3[nH]c1c1[nH]c3ccccc3c21` [Arcyriaflavin A, reference compound], the “CYP1A1-dependence” value is “CYP1A1-dependent cytotoxic”.
Turning to `Nc1nc2ccc(F)cc2c2nc(-c3ccco3)nn12` [BRO-023, 9-fluoro-2-(furan-2-yl)-[1,2,4]triazolo[1,5-c]quinazolin-5-amine], the “CYP1A1-dependence” value is “CYP1A1-dependent cytotoxic”.
Take `Cc1nc2cnccc2c2nc(-c3ccco3)nn12` [B7]: the “CYP1A1-dependence” value is given as “CYP1A1-dependent cytotoxic”.
Turning to `c1ccc(-c2n[nH]c3c2oc2ccccc23)cc1` [GTP 14564, reference compound], the “CYP1A1-dependence” value is given as “CYP1A1-dependent cytotoxic”.
Regarding `O=c1[nH]c2ccccc2c2nc(-c3ccco3)nn12` [2-(2-furyl)[1,2,4]triazolo[1,5-c]quinazolin-5(6H)-one], the “CYP1A1-dependence” value is on record as “CYP1A1-dependent cytotoxic”.
For `c1coc(-c2nc3c4ccccc4ncn3n2)c1` [2-(2-furyl)[1,2,4]triazolo[1,5-c]quinazoline], the “CYP1A1-dependence” value is on record as “CYP1A1-dependent cytotoxic”.
As to `Nc1nc2cccc(Cl)c2c2nc(-c3ccco3)nn12` [BRO-027, 10-chloro-2-(furan-2-yl)-[1,2,4]triazolo[1,5-c]quinazolin-5-amine], the “CYP1A1-dependence” value was “CYP1A1-dependent cytotoxic”.
Regarding `Nc1nc2ccc(C(F)(F)F)cc2c2nc(-c3ccco3)nn12` [BRO-024, 2-(furan-2-yl)-9-(trifluoromethyl)-[1,2,4]triazolo[1,5-c]quinazolin-5-amine], the “CYP1A1-dependence” value is “CYP1A1-dependent cytotoxic”.
Turning to `CC(C)c1ccc2nc(N)n3nc(-c4ccco4)nc3c2c1` [BRO-025, 2-(furan-2-yl)-9-isopropyl-[1,2,4]triazolo[1,5-c]quinazolin-5-amine], the “CYP1A1-dependence” value is “CYP1A1-dependent cytotoxic”.
Take `O=c1[nH]c2ccc(Cl)c(Cl)c2c2nc(-c3ccco3)nn12` [A1]: the “CYP1A1-dependence” value is listed as “CYP1A1-dependent cytotoxic”.
Same read-out and setting: next, `Cn1cccc1-c1nc2c3cc(Cl)ccc3nc(N)n2n1` [BRO-018, 9-chloro-2-(1-methyl-1H-pyrrol-2-yl)-[1,2,4]triazolo[1,5-c]quinazolin-5-amine]: “CYP1A1-dependent cytotoxic”; `Clc1cccc2ncn3nc(-c4ccco4)nc3c12` [10-chloro-2-(2-furyl)[1,2,4]triazolo[1,5-c]quinazoline]: “CYP1A1-dependent cytotoxic”; `Nc1nc2cccc(F)c2c2nc(-c3ccco3)nn12` [A17]: “CYP1A1-dependent cytotoxic”.
Consider `CSc1nc2ccccc2c2nc(-c3ccco3)nn12` [2-(2-furyl)-5-(methylsulfanyl)[1,2,4]triazolo[1,5-c]quinazoline], for which the “CYP1A1-dependence” value is on record as “CYP1A1-dependent cytotoxic”.
On the same count and under the same terms, as for `Cc1ccc(-c2nc3c4ccccc4nc(C)n3n2)o1` [B5], the entry is “CYP1A1-dependent cytotoxic”.
With `O=Cc1c2[nH]c3ccccc3c2cc2[nH]c3ccccc3c12` [FICZ, reference compound], the “CYP1A1-dependence” value is “CYP1A1-dependent cytotoxic”.
Same read-out and setting: as for `Cc1nc2cccc(C(F)(F)F)c2c2nc(-c3ccco3)nn12` [B3], the entry is “CYP1A1-dependent cytotoxic”; as for `Cc1nc2ccc(Cl)cc2c2nc(-c3ccco3)nn12` [B2], “CYP1A1-dependent cytotoxic”; as for `COc1ccc(CCCn2ncc3c2nc(N)n2nc(-c4ccco4)nc32)cc1` [SCH 442416, reference compound], “CYP1A1-dependent cytotoxic”.
`Nc1nc2cccc(C(F)(F)F)c2c2nc(-c3ccco3)nn12` [A2]: the “CYP1A1-dependence” value was “CYP1A1-dependent cytotoxic”.
On to `Nc1nc2cc(Cl)ccc2c2nc(-c3ccco3)nn12` [BRO-026, 8-chloro-2-(furan-2-yl)-[1,2,4]triazolo[1,5-c]quinazolin-5-amine], for which the “CYP1A1-dependence” value is given as “CYP1A1-dependent cytotoxic”.

Another data set has as its system MDA-MB-468 and ZR51 breast cancer and JHH7 liver cancer cell lines.
Assay: not given
Conditions: not given
`Cc1nc2ccccc2c2nc(-c3ccoc3)nn12` [Z1222312995]: the “AHR-dependence of the cytotoxic response” value is “dependence upon AHR”.
On to `COc1ccc2nc(N)n3nc(-c4ccco4)nc3c2c1` [A15], for which the “AHR-dependence of the cytotoxic response” value is listed as “dependence upon AHR”.
With `Cc1nc2cccc(Cl)c2c2nc(-c3ccco3)nn12` [B1], the “AHR-dependence of the cytotoxic response” value is listed as “dependence upon AHR”.
For the compound `Nc1nc2ccc(Br)cc2c2nc(-c3ccco3)nn12` [A14], the “AHR-dependence of the cytotoxic response” value is given as “dependence upon AHR”.
`Sc1nc2ccccc2c2nc(-c3ccco3)nn12` [2-(2-furyl)[1,2,4]triazolo[1,5-c]quinazolin-5-yl hydrosulfide]: the “AHR-dependence of the cytotoxic response” value is recorded as “dependence upon AHR”.
For the compound `COc1cccc2nc(N)n3nc(-c4ccco4)nc3c12` [A16], the “AHR-dependence of the cytotoxic response” value is “dependence upon AHR”.
Consider `O=C1NC(=O)c2c1c1c3ccccc3[nH]c1c1[nH]c3ccccc3c21` [Arcyriaflavin A, reference compound], for which the “AHR-dependence of the cytotoxic response” value is “dependence upon AHR”.
As for `Nc1nc2ccc(F)cc2c2nc(-c3ccco3)nn12` [BRO-023, 9-fluoro-2-(furan-2-yl)-[1,2,4]triazolo[1,5-c]quinazolin-5-amine], the “AHR-dependence of the cytotoxic response” value is on record as “dependence upon AHR”.
Still for that read-out and setting: next, `Cc1nc2cnccc2c2nc(-c3ccco3)nn12` [B7]: “dependence upon AHR”; `c1ccc(-c2n[nH]c3c2oc2ccccc23)cc1` [GTP 14564, reference compound]: “dependence upon AHR”; `O=c1[nH]c2ccccc2c2nc(-c3ccco3)nn12` [2-(2-furyl)[1,2,4]triazolo[1,5-c]quinazolin-5(6H)-one]: “dependence upon AHR”.
With `c1coc(-c2nc3c4ccccc4ncn3n2)c1` [2-(2-furyl)[1,2,4]triazolo[1,5-c]quinazoline], the “AHR-dependence of the cytotoxic response” value was “dependence upon AHR”.
In the case of `Nc1nc2cccc(Cl)c2c2nc(-c3ccco3)nn12` [BRO-027, 10-chloro-2-(furan-2-yl)-[1,2,4]triazolo[1,5-c]quinazolin-5-amine], the “AHR-dependence of the cytotoxic response” value is “dependence upon AHR”.
Consider `Nc1nc2ccc(C(F)(F)F)cc2c2nc(-c3ccco3)nn12` [BRO-024, 2-(furan-2-yl)-9-(trifluoromethyl)-[1,2,4]triazolo[1,5-c]quinazolin-5-amine], for which the “AHR-dependence of the cytotoxic response” value was “dependence upon AHR”.
Consider `CC(C)c1ccc2nc(N)n3nc(-c4ccco4)nc3c2c1` [BRO-025, 2-(furan-2-yl)-9-isopropyl-[1,2,4]triazolo[1,5-c]quinazolin-5-amine], for which the “AHR-dependence of the cytotoxic response” value is “dependence upon AHR”.
In the case of `O=c1[nH]c2ccc(Cl)c(Cl)c2c2nc(-c3ccco3)nn12` [A1], the “AHR-dependence of the cytotoxic response” value is “dependence upon AHR”.
Regarding `Cn1cccc1-c1nc2c3cc(Cl)ccc3nc(N)n2n1` [BRO-018, 9-chloro-2-(1-methyl-1H-pyrrol-2-yl)-[1,2,4]triazolo[1,5-c]quinazolin-5-amine], the “AHR-dependence of the cytotoxic response” value is “dependence upon AHR”.
For `Clc1cccc2ncn3nc(-c4ccco4)nc3c12` [10-chloro-2-(2-furyl)[1,2,4]triazolo[1,5-c]quinazoline], the “AHR-dependence of the cytotoxic response” value is reported as “dependence upon AHR”.
`Nc1nc2cccc(F)c2c2nc(-c3ccco3)nn12` [A17]: the “AHR-dependence of the cytotoxic response” value is listed as “dependence upon AHR”.
Take `CSc1nc2ccccc2c2nc(-c3ccco3)nn12` [2-(2-furyl)-5-(methylsulfanyl)[1,2,4]triazolo[1,5-c]quinazoline]: the “AHR-dependence of the cytotoxic response” value is “dependence upon AHR”.
With `Cc1ccc(-c2nc3c4ccccc4nc(C)n3n2)o1` [B5], the “AHR-dependence of the cytotoxic response” value was “dependence upon AHR”.
For the compound `O=Cc1c2[nH]c3ccccc3c2cc2[nH]c3ccccc3c12` [FICZ, reference compound], the “AHR-dependence of the cytotoxic response” value was “dependence upon AHR”.
For `Cc1nc2cccc(C(F)(F)F)c2c2nc(-c3ccco3)nn12` [B3], the “AHR-dependence of the cytotoxic response” value is “dependence upon AHR”.
`Cc1nc2ccc(Cl)cc2c2nc(-c3ccco3)nn12` [B2]: the “AHR-dependence of the cytotoxic response” value was “dependence upon AHR”.
Turning to `COc1ccc(CCCn2ncc3c2nc(N)n2nc(-c4ccco4)nc32)cc1` [SCH 442416, reference compound], the “AHR-dependence of the cytotoxic response” value is on record as “dependence upon AHR”.
Still for that read-out and setting: next, `Nc1nc2cccc(C(F)(F)F)c2c2nc(-c3ccco3)nn12` [A2]: “dependence upon AHR”.
Same read-out and setting: as for `Nc1nc2cc(Cl)ccc2c2nc(-c3ccco3)nn12` [BRO-026, 8-chloro-2-(furan-2-yl)-[1,2,4]triazolo[1,5-c]quinazolin-5-amine], the entry is “dependence upon AHR”.
